Data: patent US12122785B2, “Substituted pyridines, pyridazines, pyrimidines, and 1,2,4-triazines as TYK2 inhibitors” (Sudo Biosciences Limited, priority 2021, dated 2024)

Columns and labels:
Type in all cases: cell-based
[1] = test system: TYK2 pseudokinase (JH2); IL-23-stimulated HEK-Blue IL-23 cells; experiment: HEK-Blue IL-23 reporter assay (STAT3-inducible SEAP) for profiling TYK2 pseudokinase (JH2) inhibition; conditions: 10 ng/mL human recombinant IL-23, SEAP readout, read-out: IL23 (TYK2 inhibitory activity, IC50)
Protocol: (§1) Example B-1: HEK-Blue™ IL-23 and IFNα/β Reporter Assays for Profiling TYK2 Pseudokinase (JH2) Inhibition
(§2) HEK-Blue™ IL-23 and IFNα/β cells with a stably-integrated cytokine receptor and STAT3 or STAT1 express STAT-inducible secreted embryonic alkaline phosphatase (SEAP) reporter gene upon cytokine stimulation. These cells are plated in DMEM (Gibco) containing 10% heat-inactivated FBS (Gibco) and 100 U/mL PenStrep (Gibco) at 37° C. under 5% CO2 conditions for 20-22 hours. The cells are then pretreated with serially diluted test compounds for 60 min prior to stimulation with either 10 ng/mL human recombinant IL-23 (Miltenyl Biotech) or 1 ng/mL human recombinant IFNα (InvivoGen) for 22-24 hours for IL-23 or 16-18 h for IFNα. SEAP induction is measured using the QUANTI Blue™ Solution (InvivoGen) according to the manufacturer's instructions.

[2] = test system: TYK2 pseudokinase (JH2); IFNα-stimulated HEK-Blue IFNα/β cells; experiment: HEK-Blue IFNα/β reporter assay (STAT1-inducible SEAP) for profiling TYK2 pseudokinase (JH2) inhibition; conditions: 1 ng/mL human recombinant IFNα, SEAP readout, read-out: IFNα (TYK2 inhibitory activity, IC50)
Protocol: as §1, §2

[3] = test system: IL-2-stimulated HEK-Blue IL-2 reporter cells; experiment: HEK-Blue IL-2 reporter assay (STAT5-inducible SEAP) for determining selectivity; conditions: 4 ng/mL human recombinant IL-2, 24 hours
Protocol: (§3) Example B-3: HEK-Blue™ IL-2 and IFNγ Reporter Assays for Determining Selectivity
(§4) HEK-Blue™ IL-2 and IFNγ reporter cells with a stably-integrated cytokine receptor and STAT5 or STAT1 express STAT-inducible secreted embryonic alkaline phosphatase (SEAP) reporter gene upon cytokine stimulation. These cells were plated in DMEM (Gibco) containing 10% heat-inactivated FBS (Gibco) and 100 U/mL PenStrep (Gibco) at 37° C. under 5% CO2 conditions for 20-22 hours. The cells were then pretreated with serially diluted test compounds for 60 min prior to stimulation with either 4 ng/mL human recombinant IL-2 (Miltenyl Biotech) or 50 ng/mL human recombinant IFNγ (InvivoGen) for 24 hours. SEAP induction was measured using the QUANTI-Blue™ Solution (InvivoGen) according to the manufacturer's instructions.

[4] = test system: IFNγ-stimulated HEK-Blue IFNγ reporter cells; experiment: HEK-Blue IFNγ reporter assay (STAT1-inducible SEAP) for determining selectivity; conditions: 50 ng/mL human recombinant IFNγ, 24 hours, read-out: IFN-γ SEAP selectivity assay IC50
Protocol: as §3, §4

Compound | IC50 [1] [µM] | IC50 [2] [µM] | IC50 [3] [µM] | IC50 [4] [µM]
[2H]C([2H])([2H])NC(=O)c1cnc(NC(=O)C2CC2)cc1Nc1cccc2c1N(C)[C@H](C)c1cn(C)nc1-2 (single isomer, unassigned) [Compound 31] | < 0.03 | 0.03 to 0.3 | – | –
[2H]C([2H])([2H])NC(=O)c1nnc(NC(=O)C2CC2)cc1Nc1nccc2c1N(C)[C@@H](C)c1cn(C)nc1-2 (single isomer, unassigned) [Compound 69] | 0.03 to 0.3 | 0.03 to 0.3 | – | –
[2H]C([2H])([2H])NC(=O)c1nnc(NC(=O)NC)cc1Nc1nccc2c1N(C)[C@H](C)c1cn(C)nc1-2 (single isomer, unassigned) [Compound 78] | 0.03 to 0.3 | 0.3 to 1 | – | –
[2H]C([2H])([2H])NC(=O)c1nnc(NC(=O)NC)cc1Nc1nccc2c1N(C)[C@@H](C)c1cn(C)nc1-2 (single isomer, unassigned) [Compound 80] | < 0.03 | < 0.03 | > 1 | > 1
CNC(=O)c1nnc(Nc2ccc(F)cn2)cc1Nc1cccc2c1OCc1cn(C3COC3)nc1-2 [Compound 3, 6-[(5-fluoropyridin-2-yl)amino]-N-methyl-4-{[2-(oxetan-3-yl)-2H,4H-chromeno[4,3-c]pyrazol-6-yl]amino}pyridazine-3-carboxamide] | 0.03 to 0.3 | > 1 | 0.3 to 1 | 0.3 to 1
CNC(=O)c1nnc(NC(=O)C2CC2)cc1Nc1cccc2c1OCc1cn(C3COC3)nc1-2 [Compound 4, 6-(cyclopropanecarboxamido)-N-methyl-4-((2-(oxetan-3-yl)-2,4-dihydrochromeno[4,3-c]pyrazol-6-yl)amino)pyridazine-3-carboxamide] | 0.03 to 0.3 | > 1 | 0.3 to 1 | > 1
CNC(=O)c1nnc(NC(=O)C2CC2)cc1Nc1cccc2c1OC(C)c1cn(C)nc1-2 (stereo not drawn) [Compound 10, 6-(cyclopropanecarboxamido)-4-((2,4-dimethyl-2,4-dihydrochromeno[4,3-c]pyrazol-6-yl)amino)-N-methylpyridazine-3-carboxamide] | 0.03 to 0.3 | > 1 | – | –
CNC(=O)c1nnc(Nc2ccc(F)cn2)cc1Nc1cccc2c1OC(C)c1cn(C)nc1-2 (stereo not drawn) [Compound 11, 4-((2,4-dimethyl-2,4-dihydrochromeno[4,3-c]pyrazol-6-yl)amino)-6-((5-fluoropyridin-2-yl)amino)-N-methylpyridazine-3-carboxamide] | 0.03 to 0.3 | > 1 | – | –
[2H]C([2H])([2H])NC(=O)c1cnc(NC(=O)C2COC2)cc1Nc1cccc2c1N(C)Cc1cn(C)nc1-2 [Compound 24, 4-((2,5-dimethyl-4,5-dihydro-2H-pyrazolo[4,3-c]quinolin-6-yl)amino)-N-(methyl-d3)-6-(oxetane-3-carboxamido)nicotinamide] | 0.03 to 0.3 | 0.03 to 0.3 | – | –
[2H]C([2H])([2H])NC(=O)c1nnc(NC(=O)NC)cc1Nc1cccc2c1N(C)C([2H])([2H])c1cn(C)nc1-2 [Compound 33, 4-((2,5-dimethyl-4,5-dihydro-2H-pyrazolo[4,3-c]quinolin-6-yl-4,4-d2)amino)-N-(methyl-d3)-6-(3-methylureido)pyridazine-3-carboxamide] | < 0.03 | < 0.03 | > 1 | 0.3 to 1
CNC(=O)c1nnc(Nc2cc(C)nc(C)n2)cc1Nc1cccc2c1N(C)Cc1cn(C)nc1-2 [Compound 34, 4-((2,5-dimethyl-4,5-dihydro-2H-pyrazolo[4,3-c]quinolin-6-yl)amino)-6-((2,6-dimethylpyrimidin-4-yl)amino)-N-methylpyridazine-3-carboxamide] | < 0.03 | < 0.03 | 0.03 to 0.3 | 0.03 to 0.3
[2H]C([2H])([2H])NC(=O)c1cnc(NC(=O)C2CC2)cc1Nc1cccc2c1N(C)Cc1cn(C(C)C)nc1-2 [Compound 37, 6-(cyclopropanecarboxamido)-4-((2-isopropyl-5-methyl-4,5-dihydro-2H-pyrazolo[4,3-c]quinolin-6-yl)amino)-N-(methyl-d3)nicotinamide] | < 0.03 | 0.03 to 0.3 | – | –
[2H]C([2H])([2H])NC(=O)c1nnc(NC(=O)C2CC2)cc1Nc1cccc2c1N(C)Cc1cc(C)nn1-2 [Compound 52, 6-(cyclopropanecarboxamido)-4-((2,5-dimethyl-4,5-dihydropyrazolo[1,5-a]quinoxalin-6-yl)amino)-N-(methyl-d3)pyridazine-3-carboxamide] | < 0.03 | < 0.03 | > 1 | 0.3 to 1
[2H]C([2H])([2H])NC(=O)c1cnc(NC(=O)C2CC2)cc1Nc1cccc2c1N(C)Cc1cc(C)nn1-2 [Compound 53, 6-(cyclopropanecarboxamido)-4-((2,5-dimethyl-4,5-dihydropyrazolo[1,5-a]quinoxalin-6-yl)amino)-N-(methyl-d3)nicotinamide] | < 0.03 | < 0.03 | > 1 | 0.03 to 0.3
[2H]C([2H])([2H])NC(=O)c1nnc(NC(=O)C2CC2)cc1Nc1cccc2c1N(C)Cc1cc(C(F)(F)F)nn1-2 [Compound 54, 6-(cyclopropanecarboxamido)-N-(methyl-d3)-4-((5-methyl-2-(trifluoromethyl)-4,5-dihydropyrazolo[1,5-a]quinoxalin-6-yl)amino)pyridazine-3-carboxamide] | 0.03 to 0.3 | 0.3 to 1 | – | –
[2H]C([2H])([2H])NC(=O)c1cnc(NC(=O)C2CC2)cc1Nc1cccc2c1N(C)Cc1cc(C(F)(F)F)nn1-2 [Compound 55, 6-(cyclopropanecarboxamido)-N-(methyl-d3)-4-((5-methyl-2-(trifluoromethyl)-4,5-dihydropyrazolo[1,5-a]quinoxalin-6-yl)amino)nicotinamide] | 0.03 to 0.3 | 0.3 to 1 | – | –
[2H]C([2H])([2H])NC(=O)c1nnc(N(C)C(=O)C2CC2)cc1Nc1nccc2c1N(C)C([2H])([2H])c1cn(C)nc1-2 [Compound 62, 4-((2,5-dimethyl-4,5-dihydro-2H-pyrazolo[4,3-c][1,7]naphthyridin-6-yl-4,4-d2)amino)-N-(methyl-d3)-6-(N-methylcyclopropanecarboxamido)pyridazine-3-carboxamide] | < 0.03 | 0.03 to 0.3 | – | –
[2H]C([2H])([2H])NC(=O)c1nnc(NC(=O)C2CC2)cc1Nc1nccc2c1N(C)C([2H])([2H])c1cn(C)nc1-2 [Compound 72, 6-(cyclopropanecarboxamido)-4-((2,5-dimethyl-4,5-dihydro-2H-pyrazolo[4,3-c][1,7]naphthyridin-6-yl-4,4-d2)amino)-N-(methyl-d3)pyridazine-3-carboxamide] | < 0.03 | – | 0.3 to 1 | –
[2H]C([2H])([2H])NC(=O)c1nnc(NC(=O)C2CC2)cc1Nc1nccc2c1N(C)[C@H](C)c1cc(C)nn1-2 [Compound 81, (R)-6-(cyclopropanecarboxamido)-N-(methyl-d3)-4-((2,4,5-trimethyl-4,5-dihydropyrazolo[1,5-a]pyrido[3,4-e]pyrazin-6-yl)amino)pyridazine-3-carboxamide] | < 0.03 | < 0.03 | – | –
[2H]C([2H])([2H])NC(=O)c1nnc(NC(=O)C2CC2)cc1Nc1cccc2c1N(C)Cc1cn(C(C)C)nc1-2 [Compound 91, 6-(cyclopropanecarboxamido)-4-((2-isopropyl-5-methyl-4,5-dihydro-2H-pyrazolo[4,3-c]quinolin-6-yl)amino)-N-(methyl-d3)pyridazine-3-carboxamide] | < 0.03 | 0.03 to 0.3 | – | –
